From US20230136569A1, “USE OF NMN TO REDUCE IMMUNODEPRESSION AND IMMUNOSENESCENCE” (NUVAMID SA, priority 2020, published 2023)

How the values were obtained:
Type in all cases: in vivo
thymus = assay: Weight and size of the thymus (thymic involution) in old mice; conditions: old mice (15 months), 500 mg/kg p.o. in drinking water; α-NMN 4 weeks, β-NMN 6 weeks; vs non-treated old mice (FIG. 2)
Experimental: The administering of β-NMN at 500 mg/kg, of α-NMN at 500 mg/kg and of the vehicle (water) was obtained via oral route (p.o) in the drinking water to young and old mice. The solutions were prepared by dissolving the powder of β-NMN or α-NMN in the vehicle (water). The study comprised 4 groups each having 6 mice: • Group 1: young mice (aged 10 weeks)+drinking water (vehicle) • Groupe 2: old mice (aged 15 months)+drinking water (vehicle) • Group 3: old mice (aged 15 months)+compound I-B (alpha-NMN) in the drinking water • Group 4: old mice (aged 15 months)+compound I-A (beta-NMN) in the drinking water The water consumption of the mice was assessed per cage every other day. The mice were weighed every week. The mice in Group 3 were sacrificed after 4 weeks for organ collection and characterisation of T cell function. The mice in Group 4 were sacrificed after 6 weeks for organ collection and characterisation of T cell function. On the day of sacrifice, the mice were anaesthetised with Vetoflurane (isoflurane) and blood samples were taken from the retroorbital sinus. The blood was incubated for 30 minutes at ambient temperature and then centrifuged at 1300 g for 10 minutes. […] The thymus was weighed and measured to evaluate involution thereof. […] Measured parameters: The results of flow cytometry are expressed in number or as a proportion of cells per organ. […]

[1] = tested on: B cells in the bone marrow; assay: Flow cytometry of B cells in bone marrow of old mice; conditions: 500 mg/kg p.o., α-NMN 4 weeks; for number of CD38+ B cells in bone marrow: β-NMN 6 weeks (FIG. 4B); for number of CD45+ B cells in bone marrow: β-NMN 6 weeks (FIG. 5A); for number of pre-pro-B cells in bone marrow: β-NMN 6 weeks (FIG. 5B); for number of pro-B cells in bone marrow: β-NMN 6 weeks (FIG. 5C); for number of pre-B cells in bone marrow: β-NMN 6 weeks (FIG. 5D); for number of immature B cells in bone marrow: β-NMN 6 weeks (FIG. 5E); for number of B cells in bone marrow: β-NMN 6 weeks, vs non-treated old mice (FIG. 4A)
Experimental: The administering of β-NMN at 500 mg/kg, of α-NMN at 500 mg/kg and of the vehicle (water) was obtained via oral route (p.o) in the drinking water to young and old mice. The solutions were prepared by dissolving the powder of β-NMN or α-NMN in the vehicle (water). The study comprised 4 groups each having 6 mice: • Group 1: young mice (aged 10 weeks)+drinking water (vehicle) • Groupe 2: old mice (aged 15 months)+drinking water (vehicle) • Group 3: old mice (aged 15 months)+compound I-B (alpha-NMN) in the drinking water • Group 4: old mice (aged 15 months)+compound I-A (beta-NMN) in the drinking water The water consumption of the mice was assessed per cage every other day. The mice were weighed every week. The mice in Group 3 were sacrificed after 4 weeks for organ collection and characterisation of T cell function. The mice in Group 4 were sacrificed after 6 weeks for organ collection and characterisation of T cell function. On the day of sacrifice, the mice were anaesthetised with Vetoflurane (isoflurane) and blood samples were taken from the retroorbital sinus. The blood was incubated for 30 minutes at ambient temperature and then centrifuged at 1300 g for 10 minutes. After sacrificing of the mice, the spleen, thymus, and bone marrow of each animal were removed. The thymus was weighed and measured to evaluate involution thereof. For illustration purposes, photos of the thymus were taken on 5 animals per group. The thymus was divided into two parts: one part was treated with formol for histological examination. The second part was treated for characterisation of the immune cells. For characterisation of the cells, the thymus and spleen were crushed through a sieve of […] over a 50 mL tube with a syringe plunger. The bone marrow was rinsed with RPMI culture medium using a needle and syringe. The cell suspension was then centrifuged at 400 g for 5 minutes at 4° C. Lysis of the red blood cells was also performed before the cell count and use thereof for cytometry. The isolated cells of the spleen, thymus and bone marrow were marked with antibodies in accordance with the following tables to identify the proportion of effector and memory naive T and B cells. The following bone marrow cells were also examined for characterisation as a function of the combination of proteins on the surface thereof: [table] Measured parameters: The results of flow cytometry are expressed in number or as a proportion of cells per organ. The weight of the thymus is expressed in grams.

[2] = tested on: CD4+ T cells producing IFNγ or IL10; assay: Cytokine production by splenocytes stimulated with anti-CD3/CD28 beads for 18 h; conditions: splenocytes of treated old mice, anti-CD3/CD28 beads 18 h (FIG. 10A)
Experimental: The total splenocytes were stimulated with beads coated with anti-CD3/CD28 for 18 h. As shown in FIGS. 10A and 10B, ageing reduced the proportion of cells producing IFNγ and IL10 when simulated with beads coated with anti-CD3/CD28.

NC(=O)c1ccc[n+]([C@@H]2O[C@H](COP(=O)([O-])O)[C@@H](O)[C@H]2O)c1 (stereo in doubt) [I-A, nicotinamide mononucleotide]
weight and size of the thymus (thymus): significant increase in the size of the thymus
number of CD38+ B cells in bone marrow [1]: restoring of the number of CD38+ B cells to the level expressed by the young mice
number of CD45+ B cells in bone marrow [1]: significant increase in the number of CD45+ B cells
number of pre-pro-B cells in bone marrow [1]: increase in the number of pre-pro B cells
number of pro-B cells in bone marrow [1]: does not show any impact on the number of pro-B cells
number of pre-B cells in bone marrow [1]: increase in the number of pre-B cells
number of immature B cells in bone marrow [1]: increase
number of B cells in bone marrow [1]: significant increase in the number of B cells
response to stimulation: proportion of cells producing IFNγ [2]: lack of response

NC(=O)c1ccc[n+]([C@H]2O[C@H](COP(=O)([O-])O)[C@@H](O)[C@H]2O)c1 (stereo in doubt) [I-B, alpha nicotinamide mononucleotide]
weight and size of the thymus (thymus): did not allow an increase in the volume or size of the thymus
number of CD38+ B cells in bone marrow [1]: restoring of the number of CD38+ B cells to the level expressed by the young mice
number of CD45+ B cells in bone marrow [1]: significant increase in the number of CD45+ B cells
number of pre-pro-B cells in bone marrow [1]: increase in the number of pre-pro B cells
number of pro-B cells in bone marrow [1]: does not show any impact on the number of pro-B cells
number of pre-B cells in bone marrow [1]: increase in the number of pre-B cells
number of immature B cells in bone marrow [1]: increase
number of B cells in bone marrow [1]: significant increase in the number of B cells
response to stimulation: proportion of cells producing IFNγ [2]: the response to stimulation was lower
